What was measured:
[1] = system: SHP-2; settings: SHP-2 ligand set; experimental binding free energy; ref Schrödinger FEP+ benchmark; cited from earlier work
[2] = molecular target: T1, SHP2^WT (1–593) (Homo sapiens, UniProt Q06124); assay: SHP-2 prompt fluorescence phosphatase assay (DiFMUP), SHP2^WT; type: biochemical; settings: for IC50: SHP2^WT, DiFMUP substrate, averages of three independent experiments, read-out: SHP-2 IC50; for ΔGexp: converted from IC50 with ΔGexp ≈ kBTlog IC50
T1 construct: made in house; host or cells: E. coli BL21 Star (DE3), pET30 vector
T1 sequence (Q06124 1-593): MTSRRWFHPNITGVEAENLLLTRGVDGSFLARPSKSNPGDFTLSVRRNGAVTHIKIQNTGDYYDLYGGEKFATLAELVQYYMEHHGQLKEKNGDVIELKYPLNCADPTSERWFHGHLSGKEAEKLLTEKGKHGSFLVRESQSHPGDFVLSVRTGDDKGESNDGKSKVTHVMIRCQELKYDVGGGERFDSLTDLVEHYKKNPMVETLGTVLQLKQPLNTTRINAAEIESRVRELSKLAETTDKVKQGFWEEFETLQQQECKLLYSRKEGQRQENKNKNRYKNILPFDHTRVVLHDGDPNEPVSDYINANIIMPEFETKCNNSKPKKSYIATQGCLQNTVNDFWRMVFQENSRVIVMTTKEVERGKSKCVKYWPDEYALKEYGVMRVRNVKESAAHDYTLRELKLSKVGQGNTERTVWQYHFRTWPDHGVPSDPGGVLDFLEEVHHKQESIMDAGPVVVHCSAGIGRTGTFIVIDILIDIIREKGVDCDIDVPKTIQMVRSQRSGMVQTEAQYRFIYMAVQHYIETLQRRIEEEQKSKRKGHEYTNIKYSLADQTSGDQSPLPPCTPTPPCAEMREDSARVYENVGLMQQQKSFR
Protocol: (§1) Briefly, the constructs were transformed into BL21 Star^TM (DE3) cells and cultured at 37 °C for 3~4 h. Subsequently, the cells with high expression of SHP2 protein were harvested after being induced by IPTG and grown overnight at 18 °C. Cell pellets were resuspended in lysis buffer (25 mM imidazole, 50 mM Tris−HCl, 500 mM NaCl, 2.5 mM MgCl2, 1 mM tris(2-carboxyethyl)phosphine (TCEP), 1 μg/mL DNase1, and complete EDTA-free protease inhibitor) and lysed using Low Temperature Ultrahigh Pressure Continuous Flow Cell Disrupter (JNBIO), followed by ultracentrifugation. The supernatant was collected. Then, the SHP2 was purified from the collected supernatant by using HisTrap HP chelation column, TEV protease, and HiTrap Q FastFlow column.
(§2) Then, the mixture was then incubated at 25 °C for 60 min. To initiate the reaction, the surrogate substrate DiFMUP (Invitrogen, cat. no. D6567, Shuzhou, China, 200 μM) was added and incubated at 25 °C for another 30 min. […] Fluorescence signal was detected using a microplate reader (Bio-Tek, Shanghai, China, Synergy2) at Ex/Em = 340/450 nm. Using control-based normalization, normalized IC50 regression curves were fitted to inhibitor dose response curves.

[3] = system: THR-β; assay: Experimental THR-β activity of agonists taken from Hu et al.; type: biochemical; settings: Table S4, converted from the experimental value
Text: In the initial phase of our investigation, we conducted a retrospective evaluation of FMOScore’s performance concerning thyroid hormone receptor β (THR-β) agonists, using a set of 18 compounds taken from the work of Hu et al. [65]

[4] = system: c-Met; set-up: method as in earlier work; settings: Schrödinger FEP+ benchmark; cited from earlier work
[5] = system: c-Met; set-up: method as in earlier work; settings: FEP+ predicted ΔG from the benchmark; cited from earlier work
[6] = system: SYK; settings: experimental binding free energy, ref Schrödinger FEP+ benchmark; cited from earlier work
[7] = system: SYK; set-up: method as in Schrödinger FEP+ benchmark; settings: FEP+ predicted binding free energy, ref Schrödinger FEP+ benchmark; cited from earlier work
[8] = molecular target: T2, SHP2^PTP (237–529) (Homo sapiens, UniProt Q06124); assay: SHP-2 prompt fluorescence phosphatase assay (DiFMUP), SHP2^PTP; type: biochemical; settings: catalytic PTP domain construct
T2 construct: made in house; host or cells: E. coli BL21 Star (DE3), pET30 vector
T2 sequence (Q06124 237-529): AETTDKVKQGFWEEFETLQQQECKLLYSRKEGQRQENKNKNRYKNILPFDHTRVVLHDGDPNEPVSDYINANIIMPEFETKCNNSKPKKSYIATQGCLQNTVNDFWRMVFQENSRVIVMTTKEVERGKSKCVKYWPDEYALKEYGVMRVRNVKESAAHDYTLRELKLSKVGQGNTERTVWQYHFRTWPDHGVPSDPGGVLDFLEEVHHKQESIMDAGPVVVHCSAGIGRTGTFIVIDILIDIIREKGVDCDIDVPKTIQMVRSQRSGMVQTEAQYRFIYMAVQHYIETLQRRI
Protocol: as §1, §2

[9] = system: HIF-2α; settings: experimental binding free energy, ref Schrödinger FEP+ benchmark; cited from earlier work
[10] = system: TNKS2; settings: experimental binding free energy, ref Schrödinger FEP+ benchmark; cited from earlier work
[11] = system: TNKS2; set-up: method as in Schrödinger FEP+ benchmark; settings: FEP+ predicted binding free energy, ref Schrödinger FEP+ benchmark; cited from earlier work

Compound	IC50 [2] [µM]	ΔGexp [2] [kcal/mol]	inhibitory activity against SHP-2 (in words) ([2]; Figure S4, DIFMUP substrate, mean ± SD (n = 3))	fold decrease of biochemical inhibition compared to SHP099 ([2]; ratio of IC50) [fold]	IC50 [8] [µM]	Exp. ΔG [1] [kcal/mol]	ΔGexp [3] [kcal/mol]	Exp. ΔG [4] [kcal/mol]	FEP [5] [kcal/mol]	Exp. ΔG [6] [kcal/mol]	FEP [7] [kcal/mol]	Exp. ΔG [9] [kcal/mol]	Exp. ΔG [10] [kcal/mol]	FEP [11] [kcal/mol]
O=[N+]([O-])c1cc(Br)cnc1Sc1cccc(Cl)c1Cl [Compound S4]						-5.82								
CC1(N)CCN(c2cnc(-c3cccc(Cl)c3Cl)c(N)c2)CC1 [Compound 1, 5-(4-amino-4-methylpiperidin-1-yl)-2-(2,3-dichlorophenyl) pyridin-3-amine]	1.49 ± 0.024	-7.943	potent inhibitory activity	16	> 100		-8.186	-9.14	-9.88	-12.39	-12.21	-11.32		
CC1(N)CCN(c2cnc(Sc3cccc(Cl)c3Cl)c(N)c2)CC1 [Compound 7, 5-(4-amino-4-methylpiperidin-1-yl)-2-((2,3-dichlorophenyl)thio)pyridin-3-amine]	11.3 ± 1.19	-6.747					-7.406	-8.73	-9.19	-10.79	-10.29		-8.4	-9.01

Now from value to molecule, other results behind:

IC50 [2] [µM]	ΔGexp [2] [kcal/mol]	inhibitory activity against SHP-2 (in words) ([2]; Figure S4, DIFMUP substrate, mean ± SD (n = 3))	fold decrease of biochemical inhibition compared to SHP099 ([2]; ratio of IC50) [fold]	IC50 [8] [µM]	Compound	Exp. ΔG [1] [kcal/mol]	ΔGexp [3] [kcal/mol]	Exp. ΔG [4] [kcal/mol]	FEP [5] [kcal/mol]	Exp. ΔG [6] [kcal/mol]	FEP [7] [kcal/mol]	Exp. ΔG [9] [kcal/mol]	Exp. ΔG [10] [kcal/mol]	FEP [11] [kcal/mol]
5.17 ± 1.08	-7.207				Nc1cc(NC2CCNC2)cnc1-c1cccc(Cl)c1Cl (centres unmarked) [Compound 3, 2-(2,3-dichlorophenyl)-N5-(pyrrolidin-3-yl) pyridine-3,5-diamine]		-8.435	-7.46	-5.97	-8.64	-6.76			
10.7 ± 0.92	-6.780				CC1(N)CCN(c2cnc(-c3ccnc(Cl)c3Cl)c(N)c2)CC1 [Compound 6, 5-(4-amino-4-methylpiperidin-1-yl)-2′,3′-dichloro-[2,4′-bipyridin]-3-amine]		-10.257	-12.28	-12.22	-11.69	-9.59			

Source: article PMC10779950, “Binding Free Energy Calculation Based on the Fragment Molecular Orbital Method and Its Application in Designing Novel SHP-2 Allosteric Inhibitors” (International Journal of Molecular Sciences, 2024)
